Measurements as given in publication PMC12893914 (Nature, 2025).

Legend:
MOR [1] = molecular target: T1, MOR (Mus musculus, UniProt P42866); assay type: biochemical; settings: mouse spinal cord membranes
MOR [2] = molecular target: T1, MOR; assay type: biochemical; settings: mouse spinal cord membranes; 100 nM DAMGO pulse loading

T1 sequence (P42866 whole entry): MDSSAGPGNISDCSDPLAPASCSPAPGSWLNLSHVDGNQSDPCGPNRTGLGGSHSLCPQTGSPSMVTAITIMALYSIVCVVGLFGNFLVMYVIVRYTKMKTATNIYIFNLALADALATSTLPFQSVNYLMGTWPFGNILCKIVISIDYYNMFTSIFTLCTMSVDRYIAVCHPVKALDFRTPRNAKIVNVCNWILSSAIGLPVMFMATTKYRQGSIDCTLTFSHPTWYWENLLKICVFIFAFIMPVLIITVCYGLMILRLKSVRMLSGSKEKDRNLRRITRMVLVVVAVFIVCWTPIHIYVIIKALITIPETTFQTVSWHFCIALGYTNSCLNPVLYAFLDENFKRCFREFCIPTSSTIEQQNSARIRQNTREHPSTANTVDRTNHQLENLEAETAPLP

Compound: C[C@@H](NC(=O)[C@@H](N)Cc1ccc(O)cc1)C(=O)NCC(=O)N(C)[C@@H](Cc1ccccc1)C(=O)NCCO [DAMGO, [D-Ala2, N-MePhe4, Gly-ol]-enkephalin]
- efficacy class in ^35S-GTPγS binding (MOR [1]): full agonists
- stimulation of GTPγS binding over baseline (MOR [1]; 10 µM DAMGO): 40%
- stimulation of ^35S-GTPγS binding over baseline (MOR [1]; 10 µM DAMGO): 1.4 ± 0.01 fold
- efficacy in ^35S-GTPγS release (MOR [2]): does not reach this plateau
